This is an account of results in US7432283B2, “Heterocyclic GABAA subtype selective receptor modulators” (Roche Palo Alto LLC, priority 2004, dated 2008).

Usually melting point stands for the temperature of the solid-liquid transition.

In one data set the target is T1, GABAA α1β2γ2 (Homo sapiens, UniProt P14867+P18507+P47870).
T1 construct: expressed in transfected cells; host or cells: HEK293
Briefly: 35S-TBPS binding assay, GABAA α1β2γ2. The note with it: 35S-TBPS (5 nM) competition, GABA 1 μM, HEK293 cell membranes, 2 hours at room temperature; for IC50: read-out: pIC50 α1β2γ2 (converted). The method, then:
(§1) The binding assay is based on the assay reported by K. Gee et al., Eur. J. Pharmacol. 1987 136:419-423.
(§2) Homogenate preparation: Membrane preparations of HEK293 cells containing either GABAA α1β2γ2 or GABAA α2β3γ2 constructs were performed according to a modified procedure previously described by Gee et al. (supra). Whole HEK 293 cells in D-PBS (calcium/magnesium free) buffer adjusted to pH 7.4 were centrifuged at 7,280×g for 20 m. After discarding the supernatant, the pellet was resuspended in the buffer and centrifuged at 1,820×g for 10 m. Afterwards, the supernatant was discarded and the pellet resuspended in ice-cold preparation buffer (50 mM Tris HCl pH 7.4, 4° C. and 150 mM KCl), homogenized for 30 sec using a Brinkmann Polytron PT3000 (setting 6) and centrifuged at 48,000×g for 30 m at 4° C. The centrifugation and homogenization procedure was repeated two more times for a total of 3 times before resuspending the membranes at a final protein concentration of 0.5 mg/mL. Aliquots (30 mL) of the final membrane preparation were then centrifuged at 48,000×g for 30 m, and the resulting pellets were stored at −80° C. until required.
(§3) 35S-TBPS binding assay. Membrane pellets containing either GABAA α1β2γ2 or GABAA α2β3γ2 constructs were thawed on ice, resuspended in 10 mL of 50 mM Tris HCl pH 7.4, 4° C. and 150 mM KCl and centrifuged at 48,000×g, 30 m at 4° C. After discarding the supernatant, the pellet was resuspended in 30 mL incubation buffer (50 mM Tris HCl pH 7.4, 25° C. and 150 mM KCl) at approximately 0.5 mg/mL protein concentration. In ^35S-TBPS competition studies, HEK293 membranes were incubated with ^35S-TBPS (5 nM final) and GABA (1 μM) in the absence or presence of competitor at concentrations ranging from 0.01 nM to 10 μM in 125 μL incubation buffer for 2 hours at room temperature (˜22° C.). Non-specific binding was assayed with picrotoxin (100 μM final concentration). […] Measurement of bound radioactivity was performed using a Packard Microplate 96 well topcount scintillation counter. […]

A further data set concerns the target T2, GABAA α2β3γ2 (Homo sapiens, UniProt P18507+P28472+P47869).
T2 construct: expressed in transfected cells; host or cells: HEK293
Briefly: 35S-TBPS binding assay, GABAA α2β3γ2. The note with it: 35S-TBPS (5 nM) competition, GABA 1 μM, HEK293 cell membranes, 2 hours at room temperature; for IC50: read-out: pIC50 α2β3γ2 (converted). The method, then:
as §1, §2, §3

T2 sequence (P47869 29-451): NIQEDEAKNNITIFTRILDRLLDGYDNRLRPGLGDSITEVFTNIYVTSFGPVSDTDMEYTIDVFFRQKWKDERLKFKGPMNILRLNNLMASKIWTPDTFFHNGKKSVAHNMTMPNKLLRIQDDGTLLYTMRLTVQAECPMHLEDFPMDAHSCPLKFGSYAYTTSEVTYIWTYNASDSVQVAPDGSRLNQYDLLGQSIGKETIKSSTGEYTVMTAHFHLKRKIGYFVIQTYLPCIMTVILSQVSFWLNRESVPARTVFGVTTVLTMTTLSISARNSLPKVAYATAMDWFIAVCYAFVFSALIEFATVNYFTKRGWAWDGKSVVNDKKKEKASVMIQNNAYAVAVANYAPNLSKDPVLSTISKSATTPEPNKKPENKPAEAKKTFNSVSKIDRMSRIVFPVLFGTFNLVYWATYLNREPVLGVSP
T2 sequence (P28472 26-473): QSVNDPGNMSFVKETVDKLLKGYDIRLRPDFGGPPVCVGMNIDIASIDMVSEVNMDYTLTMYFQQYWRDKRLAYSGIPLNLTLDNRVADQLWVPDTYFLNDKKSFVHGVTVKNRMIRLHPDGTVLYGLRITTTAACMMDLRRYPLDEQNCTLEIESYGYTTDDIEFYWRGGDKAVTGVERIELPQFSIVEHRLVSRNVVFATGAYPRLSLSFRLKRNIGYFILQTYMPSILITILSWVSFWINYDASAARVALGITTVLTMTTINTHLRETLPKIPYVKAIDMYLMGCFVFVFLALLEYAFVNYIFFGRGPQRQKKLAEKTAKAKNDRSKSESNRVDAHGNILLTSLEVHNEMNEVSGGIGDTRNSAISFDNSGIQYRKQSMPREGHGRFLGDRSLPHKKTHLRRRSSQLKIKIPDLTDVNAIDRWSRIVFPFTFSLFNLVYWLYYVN
T2 sequence (P18507 40-475): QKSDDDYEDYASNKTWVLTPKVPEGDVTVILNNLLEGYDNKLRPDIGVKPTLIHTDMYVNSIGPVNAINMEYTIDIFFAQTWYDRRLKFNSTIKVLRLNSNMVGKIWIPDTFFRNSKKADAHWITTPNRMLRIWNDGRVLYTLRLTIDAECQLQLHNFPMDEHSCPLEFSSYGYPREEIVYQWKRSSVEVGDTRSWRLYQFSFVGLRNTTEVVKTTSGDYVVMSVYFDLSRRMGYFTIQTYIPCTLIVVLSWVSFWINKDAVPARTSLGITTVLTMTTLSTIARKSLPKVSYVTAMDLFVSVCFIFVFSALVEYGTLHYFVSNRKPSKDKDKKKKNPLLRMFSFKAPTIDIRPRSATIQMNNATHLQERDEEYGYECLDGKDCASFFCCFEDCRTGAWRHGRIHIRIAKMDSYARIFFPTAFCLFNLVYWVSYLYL
T1 sequence (P14867 28-456): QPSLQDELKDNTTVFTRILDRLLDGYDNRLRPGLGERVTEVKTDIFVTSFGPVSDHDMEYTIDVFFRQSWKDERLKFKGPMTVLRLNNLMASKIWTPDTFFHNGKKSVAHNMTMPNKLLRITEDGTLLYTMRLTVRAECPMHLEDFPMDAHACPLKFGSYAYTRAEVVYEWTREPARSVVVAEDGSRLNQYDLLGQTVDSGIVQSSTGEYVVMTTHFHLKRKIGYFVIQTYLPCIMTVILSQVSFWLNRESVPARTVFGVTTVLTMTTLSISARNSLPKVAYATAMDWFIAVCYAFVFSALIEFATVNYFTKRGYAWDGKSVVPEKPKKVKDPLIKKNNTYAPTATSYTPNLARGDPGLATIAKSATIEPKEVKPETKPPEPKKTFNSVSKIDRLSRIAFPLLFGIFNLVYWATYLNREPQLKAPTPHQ
T1 sequence (P47870 25-512 limits assumed): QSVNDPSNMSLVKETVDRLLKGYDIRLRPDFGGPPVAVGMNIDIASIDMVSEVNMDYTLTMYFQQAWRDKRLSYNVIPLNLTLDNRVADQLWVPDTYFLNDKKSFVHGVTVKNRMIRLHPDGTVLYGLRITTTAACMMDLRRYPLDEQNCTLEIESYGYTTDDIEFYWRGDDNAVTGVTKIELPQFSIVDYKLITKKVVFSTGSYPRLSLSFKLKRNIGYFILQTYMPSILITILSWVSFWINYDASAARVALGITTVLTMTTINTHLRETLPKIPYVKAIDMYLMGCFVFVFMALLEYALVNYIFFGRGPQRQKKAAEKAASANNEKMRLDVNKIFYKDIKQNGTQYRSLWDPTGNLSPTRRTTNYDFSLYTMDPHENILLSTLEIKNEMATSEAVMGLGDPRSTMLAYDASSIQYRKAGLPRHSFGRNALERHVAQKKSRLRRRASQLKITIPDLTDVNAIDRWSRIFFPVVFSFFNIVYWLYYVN
T1 sequence (P18507 40-475): as the sequence (P18507 40-475) above

For “7-(2,4-Dichloro-phenyl)-3-ethynyl-2-methyl-4,5,6,7-tetrahydro-2H-|pyrazolo[3,4-b]pyridine [Compound 3-10]”, the “pIC50 α1β2γ2” value at GABAA α1β2γ2 is listed as 5.423. At GABAA α2β3γ2, the “pIC50 α2β3γ2” value was 6.883.
Regarding `Cn1nc2c(c1Cl)CCCN2c1ccc(Cl)cc1Cl` [Compound 1-9, 3-chloro-7-(2,4-dichloro-phenyl)-2-methyl-4,5,6,7-tetrahydro-2H-pyrazolo [3,4-b]pyridine], the melting point fell in the range of 94.5 to 95.5 °C. In addition, at GABAA α1β2γ2, the IC50 is 1200 nM. The IC50 on GABAA α2β3γ2 is 96.4 nM.
For the compound `Cc1c2c(nn1C)N(c1ccc(Cl)cc1Cl)CCC2` [Compound 2-17, 7-(2,4-Dichloro-phenyl)-2,3-dimethyl-4,5,6,7-tetrahydro-2H-pyrazolo[3,4-b]pyridine], the melting point is 66.6 to 76.6 °C. Moreover, the IC50 on GABAA α1β2γ2 is 2840 nM. Also, the IC50 at GABAA α2β3γ2 was 105 nM.
